Laboratory results: patent publication US20240376099A1, “COMPOUNDS AND COMPOSITIONS AS INHIBITORS OF ENDOSOMAL TOLL-LIKE RECEPTORS” (Novartis AG, priority 2016, published 2024)

Molecular target: T1, TLR9 (Homo sapiens, UniProt Q9NR96)
T1 construct: Fresh blood was collected from normal human donors; endogenous in cells; host or cells: human PBMCs from fresh donor blood
T1 sequence (Q9NR96 26-1032): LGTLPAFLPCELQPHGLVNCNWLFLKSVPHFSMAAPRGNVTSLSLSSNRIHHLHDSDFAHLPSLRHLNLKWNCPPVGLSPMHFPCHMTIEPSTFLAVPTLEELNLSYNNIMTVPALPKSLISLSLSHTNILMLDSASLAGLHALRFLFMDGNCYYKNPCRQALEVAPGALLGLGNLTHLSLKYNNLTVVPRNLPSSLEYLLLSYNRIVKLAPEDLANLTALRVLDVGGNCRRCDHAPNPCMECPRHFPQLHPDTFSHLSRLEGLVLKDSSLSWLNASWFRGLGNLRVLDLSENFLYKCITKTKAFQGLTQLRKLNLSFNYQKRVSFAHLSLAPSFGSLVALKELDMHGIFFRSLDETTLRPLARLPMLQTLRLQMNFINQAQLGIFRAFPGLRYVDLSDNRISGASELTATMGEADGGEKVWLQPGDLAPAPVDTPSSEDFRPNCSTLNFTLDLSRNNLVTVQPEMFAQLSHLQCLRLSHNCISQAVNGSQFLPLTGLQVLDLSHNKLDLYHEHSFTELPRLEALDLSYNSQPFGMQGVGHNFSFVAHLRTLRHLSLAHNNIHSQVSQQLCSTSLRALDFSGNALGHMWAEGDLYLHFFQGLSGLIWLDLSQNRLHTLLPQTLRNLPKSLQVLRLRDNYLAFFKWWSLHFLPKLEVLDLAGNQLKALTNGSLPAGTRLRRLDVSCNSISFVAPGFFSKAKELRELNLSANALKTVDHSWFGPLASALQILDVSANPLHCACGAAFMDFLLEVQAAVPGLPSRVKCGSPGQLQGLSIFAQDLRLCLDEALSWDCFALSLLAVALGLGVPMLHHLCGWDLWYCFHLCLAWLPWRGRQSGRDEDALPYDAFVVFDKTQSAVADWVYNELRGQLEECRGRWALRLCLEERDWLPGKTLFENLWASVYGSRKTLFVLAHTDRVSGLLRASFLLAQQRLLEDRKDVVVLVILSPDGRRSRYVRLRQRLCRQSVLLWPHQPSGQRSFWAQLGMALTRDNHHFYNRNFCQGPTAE
Test: huPBMC TLR9 Antagonist IFNα Assay
Type: cell-based
Conditions: human PBMCs stimulated with ODN2216 0.3 μM, 14-16 hrs; IFNα2b AlphaLISA read-out
Experimental: Compounds were generally serially diluted (1/3) in DMSO and plated on sterile 384 well tissue culture plates and stored until ready for use. Each ten-point dilution was typically plated in triplicate in parallel rows.
Fresh blood was collected from normal human donors underwritten informed consent in heparinized syringes on the morning of the assay. The blood was diluted in RPMI-1640 medium and the white blood cells were separated from red blood cells by centrifugation (800 g 15′ 0 acceleration, 0 brake) on a Ficoll cushion. Peripheral blood mononuclear cells (PBMCs) were separated from platelets by a series of low-speed centrifugations (1000RPM 10′) in PBS+5% HI—FBS and 1 mM EDTA. Purified PBMCs were re-suspended in assay medium (RPMI-1640 w Glutamax (Invitrogen) supplemented with 5% HI—FBS, 10 mM HEPES, 50 uM β-mercaptoethanol, and 100 mG/L penicillin/streptomycin cocktail). Viable PBMCs were counted on a hemacytometer and kept on ice until ready for plating.
A 4× concentration (4 ug/ml or 40 ug/ml for TLR8 or TLR7 assays, respectively) of the TLR7/8 agonist ssRNA40 (IDT) was complexed with 10% DOTAP (Roche) in assay medium for 30 min prior to addition to the PBMC suspension (5 million cells/ml). After addition, the final concentration of ssRNA40 in the TLR7/8 stimulated PBMC suspension was 1 μg/ml for TLR8 assay, and 10 μg/mL for the TLR7 assay. The final DOTAP concentration was 2.5%. Diluted PBMCs (5 million cells/ml) were treated with 4×TLR9 agonist ODN2216 (Invivogen). Final concentration of ODN2216 in TLR9 stimulated PBMC suspension was 0.3 μM.
Agonist stimulated PBMCs were plated on the compound treated 384 well plates at 150,000 cells/well. Un-stimulated PBMCs were plated as controls on each plate. Plating volume was 40 μL per well. DMSO concentration in each well was 0.25%.
A separate plate, without compounds, with titrations of ssRNA40 and ODN2216 was included in every assay to measure agonist response of each donor's PBMC prep. Assay plates were placed in a tissue culture incubator (37° C., 5% CO2) for 14-16 hrs. After this incubation, the plates were centrifuged and stored at −20° C. until they were assayed.
IL-6 TR-FRET Assay for TLR8 activity: • 1) Cisbio Human IL-6 kit, 20,000 tests (62TNFPEC), and GNF High-Base TC 384 well plates (cat #789163G) were used; • 2) the Anti-TIL-6 Cryptate conjugate and the Anti-IL-6 XL665 conjugate were diluted 1:20 in Reconstitution Buffer; • 3) a 1:1 mixture of 3 μl/well Anti-IL-6 Cryptate conjugate and 3 μl/well Anti-IL-6 XL665 conjugate was prepared; • 4) 6 μl/well HTRF dilution mastermix was added to 6 μl of transferred supernatant samples in proxiplates; • 5) The plates were incubated for 3 hrs at rt in the dark; and • 6) the levels of IL-6 production was measured using an Envision plate reader (665 nm (emmission)/590 nm (excitation)) with HTRF settings and ratiometric read-out: (XL665 emission/Eu Cryptate emission)×10,000. IFNα2b AlphaLISA Assay for TLR7 or TLR9 activity After thawing the assay plates, 6 μL of supernatant samples were transferred to a low-volume AlphaPlate 384SW (Perkin-Elmer). The concentration of IFNα in supernatants was measured using the IFNα2b AlphaLISA Assay (Perkin-Elmer: AL297F). 3 μL of IFNα acceptor beads/biotinylated antibody solution was added first, using laboratory automation. After an hour incubation, […] of streptavidin […] bead solution was added. The plates containing this mixture were incubated in the dark for an hour and read on an appropriate plate reader at reading parameters set by the manufacturer. (Envision, EnSpire: Perkin-Elmer).

SMILES	IC50
Cn1ncc2c(N3CCc4c(cnn4CC45CCC(N)(CC4)CC5)C3)nc(N)nc21 [compound 11, 4-(1-((4-aminobicyclo[2.2.2]octan-1-yl)methyl)-6,7-dihydro-1H-pyrazolo[4,3-c]pyridin-5(4H)-yl)-1-methyl-1H-pyrazolo[3,4-d]pyrimidin-6-amine]	> 6.58 µM
Cn1ncc2c(N3CCc4nn(CC56CCC(N)(CC5)CC6)cc4C3)nc(N)nc21 [compound 12, 4-(2-((4-aminobicyclo[2.2.2]octan-1-yl)methyl)-6,7-dihydro-2H-pyrazolo[4,3-c]pyridin-5(4H)-yl)-1-methyl-1H-pyrazolo[3,4-d]pyrimidin-6-amine]	> 4.96 µM
Cc1nn(CC23CCC(N)(CC2)CC3)c2c1CN(c1nc(N)nc3c1cnn3C)CC2 [compound 13, 4-(1-((4-aminobicyclo[2.2.2]octan-1-yl)methyl)-3-methyl-6,7-dihydro-1H-pyrazolo[4,3-c]pyridin-5(4H)-yl)-1-methyl-1H-pyrazolo[3,4-d]pyrimidin-6-amine]	7.75 µM
Cc1c2c(nn1CC13CCC(N)(CC1)CC3)CCN(c1nc(N)nc3c1cnn3C)C2 [compound 14, 4-(2-((4-aminobicyclo[2.2.2]octan-1-yl)methyl)-3-methyl-6,7-dihydro-2H-pyrazolo[4,3-c]pyridin-5(4H)-yl)-1-methyl-1H-pyrazolo[3,4-d]pyrimidin-6-amine]	> 9.09 µM
Cc1nn(CC23CCC(N)(CC2)CC3)c2c1CN(c1nc(Cl)nc3cnn(C)c13)CC2 [compound 15, 4-((5-(5-chloro-1-methyl-1H-pyrazolo[4,3-d]pyrimidin-7-yl)-3-mehtyl-4,5,6,7-tetrahydro-1H-pyrazolo[4,3-c]pyridin-1-yl)methyl)bicyclo[2.2.2]octan-1-amine]	1.27 µM
Cc1nc(N2CCc3c(c(C)nn3CC34CCC(N5CCCC5)(CC3)CC4)C2)c2cnn(C)c2n1 [compound 16, 1,6-dimethyl-4-(3-methyl-1-((4-(pyrrolidin-1-yl)bicyclo[2.2.2]octan-1-yl)methyl)-6,7-dihydro-1H-pyrazolo[4,3-c]pyridin-5(4H)-yl)-1H-pyrazolo[3,4-d]pyrimidine]	> 10 µM
Cc1nc(N2CCc3c(c(C)nn3CC34CCC(N5CCCC5)(CC3)CC4)C2)c2c(n1)c(C)nn2C [compound 17, 1,3,5-trimethyl-7-(3-methyl-1-((4-(pyrrolidin-1-yl)bicyclo[2.2.2]octan-1-yl)methyl)-6,7-dihydro-1H-pyrazolo[4,3-c]pyridin-5(4H)-yl)-1H-pyrazolo[4,3-d]pyrimidine]	> 10 µM
COCCNC12CCC(Cn3nc(C)c4c3CCN(c3nc(C)nc5c(C)nn(C)c35)C4)(CC1)CC2 [compound 18, N-(2-methoxyethyl)-4-((3-methyl-5-(1,3,5-trimethyl-1H-pyrazolo[4,3-d]pyrimidin-7-yl)-4,5,6,7-tetrahydro-1H-pyrazolo[4,3-c]pyridin-1-yl)methyl)bicyclo[2.2.2]octan-1-amine]	> 10 µM
Cc1nc(N2CCc3c(c(C)nn3CC34CCC(N5CCOCC5)(CC3)CC4)C2)c2cnn(C)c2n1 [compound 19, 4-(4-((5-(1,6-dimethyl-1H-pyrazolo[3,4-d]pyrimidin-4-yl)-3-methyl-4,5,6,7-tetrahydro-1H-pyrazolo[4,3-c]pyridin-1-yl)methyl)bicyclo[2.2.2]octan-1-yl)morpholine]	> 10 µM
CCNCC(=O)NC12CCC(Cn3nc(C)c4c3CCN(c3nc(C)nc5[nH]ncc35)C4)(CC1)CC2 [compound 20, 2-(ethylamino)-N-(4-((3-methyl-5-(6-methyl-1H-pyrazolo[3,4-d]pyrimidin-4-yl)-4,5,6,7-tetrahydro-1H-pyrazolo[4,3-c]pyridin-1-yl)methyl)bicyclo[2.2.2]octan-1-yl)acetamide]	> 9.38 µM
Cc1nc(N2CCc3c(c(C)nn3CC34CCC(N5CCOCC5)(CC3)CC4)C2)c2cn[nH]c2n1 [compound 21, 4-(4-((3-methyl-5-(6-methyl-1H-pyrazolo[3,4-d]pyrimidin-4-yl)-4,5,6,7-tetrahydro-1H-pyrazolo[4,3-c]pyridin-1-yl)methyl)bicyclo[2.2.2]octan-1-yl)morpholine]	> 10 µM
CCNCC(=O)NC12CCC(Cn3nc(C)c4c3CCN(c3nc(C)nc5c(C)nn(C)c35)C4)(CC1)CC2 [compound 22, 2-(ethylamino)-N-(4-((3-methyl-5-(1,3,5-trimethyl-1H-pyrazolo[4,3-c]pyrimidin-7-yl)-4,5,6,7-tetrahydro-1H-pyrazolo[4,3-c]pyridin-1-yl)methyl)bicyclo[2.2.2]octan-1-yl)acetamide]	> 10 µM
Cc1nc(N2CCc3c(c(C)nn3CC34CCC(NCC5COC5)(CC3)CC4)C2)c2c(n1)c(C)nn2C [compound 23, 4-((3-methyl-5-(1,3,5-trimethyl-1H-pyrazolo[4,3-c]pyrimidin-7-yl)-4,5,6,7-tetrahydro-1H-pyrazolo[4,3-c]pyridin-1-yl)methyl)-N-(oxetan-3-ylmethyl)bicyclo[2.2.2]octan-1-amine]	> 10 µM
Cc1nc(N2CCc3c(c(C)nn3CC34CCC(NC(=O)CCN(C)C)(CC3)CC4)C2)c2c(n1)c(C)nn2C [compound 24, 3-(dimethyalmino)-N-(4-((3-methyl-5-(1,3,5-trimethyl-1H-pyrazolo[4,3-d]pyrimidin-7-yl)-4,5,6,7-tetrahydro-1H-pyrazolo[4,3-c]pyridin-1-yl)methyl)bicyclo[2.2.2]octan-1-yl)propanamide]	> 7.38 µM
Cc1nc(N2CCc3c(c(C)nn3CC34CCC(N5CCOCC5)(CC3)CC4)C2)c2c(n1)c(C)nn2C [compound 25, 4-(4-((3-methyl-5-(1,3,5-trimethyl-1H-pyrazolo[4,3-d]pyrimidin-7-yl)-4,5,6,7-tetrahydro-1H-pyrazolo[4,3-c]pyridin-1-yl)methyl)bicyclo[2.2.2]octan-1-yl)morpholine]	> 8.08 µM
Cc1nc(N2CCc3c(c(C)nn3CC34CCC(NC5CCC5)(CC3)CC4)C2)c2c(n1)c(C)nn2C [compound 27, N-cyclobutyl-4-((3-methyl-5-(1,3,5-trimethyl-1H-pyrazolo[4,3-d]pyrimidin-7-yl)-4,5,6,7-tetrahydro-1H-pyrazolo[4,3-c]pyridin-1-yl)methyl)bicyclo[2.2.2]octan-1-amine]	> 10 µM
